Assay [1] addresses T1, glucocorticoid receptor, rat thymus (Rattus norvegicus, UniProt P06536).
T1 construct: The second test was a glucocrticoid receptor test on rat thymus; from tissue; host or cells: thymus of adrenalectomized male Sprague Dawley EOPS rats, 105,000 g supernatant (cytosol)
T1 sequence (P06536 1-795): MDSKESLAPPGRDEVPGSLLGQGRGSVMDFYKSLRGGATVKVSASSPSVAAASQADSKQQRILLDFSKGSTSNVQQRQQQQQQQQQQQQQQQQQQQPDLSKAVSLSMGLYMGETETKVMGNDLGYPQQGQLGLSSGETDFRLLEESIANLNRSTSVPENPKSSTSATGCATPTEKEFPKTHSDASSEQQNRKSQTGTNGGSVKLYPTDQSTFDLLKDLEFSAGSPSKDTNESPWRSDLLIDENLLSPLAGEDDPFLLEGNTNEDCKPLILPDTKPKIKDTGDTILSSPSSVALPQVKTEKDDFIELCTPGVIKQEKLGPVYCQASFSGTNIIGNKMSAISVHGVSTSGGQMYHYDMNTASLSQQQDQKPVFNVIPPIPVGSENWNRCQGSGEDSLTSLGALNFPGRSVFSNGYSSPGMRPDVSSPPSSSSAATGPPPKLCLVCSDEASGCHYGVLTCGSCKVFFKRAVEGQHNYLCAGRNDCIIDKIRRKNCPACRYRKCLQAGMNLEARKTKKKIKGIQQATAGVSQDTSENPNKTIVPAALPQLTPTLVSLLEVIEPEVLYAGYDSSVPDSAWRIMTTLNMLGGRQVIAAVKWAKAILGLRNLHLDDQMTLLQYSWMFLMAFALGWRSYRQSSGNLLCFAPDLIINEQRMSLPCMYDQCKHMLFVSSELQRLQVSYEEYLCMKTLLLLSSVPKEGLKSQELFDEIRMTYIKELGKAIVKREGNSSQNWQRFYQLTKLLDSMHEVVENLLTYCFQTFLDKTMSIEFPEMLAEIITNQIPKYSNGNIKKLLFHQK
Kind of assay: Relative binding affinity (ARL), glucocorticoid receptor of rat thymus. As to conditions: rat thymus cytosol, tritiated dexamethasone, cold reference dexamethasone; for relative affinity of the bond (ARL), Glucocorticoid, 2H: incubation 2H at 0° C.; for relative affinity of the bond (ARL), Glucocorticoid, 24H: incubation 24H at 0° C. As for the experimental part: The second test was a glucocrticoid receptor test on rat thymus in which male rats of the Sprague Dawley EOPS strain weighing 160 to 200 g were surrenalectomized. 4 to 8 days after this ablation, the animals were killed and the thymus was removed and homogenized at 0° C. in a buffered TS solution. (Tris 10 mM, 0.25M saccharose, 2 mM dithiothreitol, HCl pH 7.4) with a Potter tetrafluoroethylene-glass (1 g of tissue per 10 ml/TS). The homogenate was ultracentrifuged at 105,000 for 90 minutes at 0° C. and the surnageant samples were incubated at 0° C. for a time t with a constant concentration T of tritiated dexamethasone in the presence of increasing concentrations (0-2500×10^-9 M) or cold dexamethasone or cold test compound. The concentration B of bound tritiated dexamethasone was measured for each incubate by carbon-dextran absorption technique.
(§1) The relative affinity of the bond (ARL) was calculated in the same for the receptors. One traced the following 2 curves: the percentage of bond tritiated hormone B/T as a logarithmic function of the concentration of the cold reference hormone and B/T as a logarithmic function of the concentration of the cold test compound. Using the equation [formula] B/T max.=% of bound tritiated hormone for one incubation of tritiated hormone at concentration (T)
(§2) B/T min.=% of bound tritiated hormone for one incubation of tritiated hormone at a concentration T in the presence of a great excess of cold hormone (2500×10^-9 M).
(§3) The intersections of I50 lines and the curves permit an evaluation of the hormone concentration of the cold reference (CH) and the cold test compound (CX) which inhibited by 50% the bounding of tritiated hormone to the receptor. The ARL of the test compound was determined by the equation. [formula] and the following results were obtained.

Assay [2] concerns the target T2, progesterone receptors of rabbit uterus (Oryctolagus cuniculus, UniProt P06186).
T2 construct: The first test was on the progesterone receptors of rabbit uterus; from tissue; host or cells: uterus of estradiol-treated immature rabbits, 105,000 g supernatant (cytosol)
T2 sequence (P06186 1-930): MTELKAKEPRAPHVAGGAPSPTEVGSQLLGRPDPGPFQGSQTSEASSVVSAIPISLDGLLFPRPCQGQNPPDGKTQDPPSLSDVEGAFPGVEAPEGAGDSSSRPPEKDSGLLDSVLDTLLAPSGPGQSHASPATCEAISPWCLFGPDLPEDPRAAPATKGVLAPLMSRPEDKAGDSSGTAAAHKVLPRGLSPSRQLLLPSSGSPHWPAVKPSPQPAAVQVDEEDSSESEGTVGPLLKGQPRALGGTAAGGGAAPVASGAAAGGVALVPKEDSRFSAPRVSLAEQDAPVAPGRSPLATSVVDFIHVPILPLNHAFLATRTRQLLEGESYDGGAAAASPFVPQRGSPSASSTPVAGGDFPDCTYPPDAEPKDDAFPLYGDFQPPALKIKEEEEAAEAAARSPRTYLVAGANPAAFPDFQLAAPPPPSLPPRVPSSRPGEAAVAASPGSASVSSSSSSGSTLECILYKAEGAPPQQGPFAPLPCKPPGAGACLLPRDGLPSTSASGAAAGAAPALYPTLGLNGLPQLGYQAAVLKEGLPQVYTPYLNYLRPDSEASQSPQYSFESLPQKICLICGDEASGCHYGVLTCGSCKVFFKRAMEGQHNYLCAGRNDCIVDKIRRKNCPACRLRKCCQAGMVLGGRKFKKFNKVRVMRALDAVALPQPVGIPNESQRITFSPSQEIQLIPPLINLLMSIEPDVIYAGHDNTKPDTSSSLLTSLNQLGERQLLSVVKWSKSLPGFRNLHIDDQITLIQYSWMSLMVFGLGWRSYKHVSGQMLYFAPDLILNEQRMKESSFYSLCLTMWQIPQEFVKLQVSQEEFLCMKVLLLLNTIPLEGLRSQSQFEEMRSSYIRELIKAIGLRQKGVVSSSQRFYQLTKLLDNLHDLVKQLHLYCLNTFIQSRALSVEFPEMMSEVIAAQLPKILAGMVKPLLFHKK
The assay is described as follows: Relative binding affinity (ARL), progesterone receptors of rabbit uterus. The settings on record: rabbit uterus cytosol, tritiated 17,21-dimethyl-19-nor-Δ4,9-pregnadiene-3,20-dione, cold reference hormone progesterone; for relative affinity of the bond (ARL), Progestogen, 2H: incubation 2H at 0° C.; for relative affinity of the bond (ARL), Progestogen, 24H: incubation 24H at 0° C. The protocol: The first test was on the progesterone receptors of rabbit uterus in which immature rabbits weighing about 1 kg received a cutaneous application of […] of estradiol and 5 days after treatment, the animals were sacrificed. The […] was removed, weighed and homogenized at 0° C. with a Potter Teflon-glass ina buffered solution. TS (Tris 10 mM, 0.25M Saccharose, HCl, pH 7.4) (1 g of tissue per 50 ml of TS). The homogenate was ultracentrifuged at 105,000 g×90 minutes at 0° C. The surnageant samples were incubated at a time at (t) 0° C. with a constant concentration (T) of tritiated product (R) which is 17,21-dimethyl-19-nor-Δ^4,9 -pregnadiene-3,20-dione in the presence of increasing concentrations from 0 to 2500×10^-9 M or cold R or cold progestenone or cold test compound. The concentration of bound tritiated R was measured for each incubate by absorption technique on dextran carbon.
as §1, §2, §3

Ten compounds from US4943566A, “Novel 17-aryl-steroids” (Roussel Uclafi, priority 1987, dated 1990) can be followed below.

`COc1ccc([C@H]2C[C@@]3(C)[C@@H](CC[C@@]3(O)c3ccc(OC)cc3)[C@@H]3CCC4=CC(=O)CCC4=C32)cc1` [Example 1, 11β,17α-bis-(4-methoxy-phenyl)-Δ^4,9-estradiene-17β-ol-3-one]: in assay [1], the “relative affinity of the bond (ARL), Glucocorticoid, 2H” value (“relative affinity … Glucocorticoid, 2H” below) amounted to 94 and the “relative affinity of the bond (ARL), Glucocorticoid, 24H” value (from here on “relative affinity … Glucocorticoid, 24H”) stood at 68. In assay [2], the “relative affinity of the bond (ARL), Progestogen, 2H” value (“relative affinity … Progestogen, 2H” below) turned out to be 48 and the “relative affinity of the bond (ARL), Progestogen, 24H” value (shortened to “relative affinity … Progestogen, 24H”) stood at 259.

For `CN(C)c1ccc([C@H]2C[C@@]3(C)[C@@H](CC[C@@]3(O)c3ccc(O)cc3)[C@@H]3CCC4=CC(=O)CCC4=C32)cc1` [Example 6, 11β-(4-dimethylamino-phenyl)-17α-(4-hydroxy-phenyl)-Δ^4,9-estradiene-17β-ol-3-one], in assay [1], the “relative affinity … Glucocorticoid, 2H” value is 133 and the “relative affinity … Glucocorticoid, 24H” value amounted to 97. Besides, in assay [2], the “relative affinity … Progestogen, 2H” value was determined as 33 and the “relative affinity … Progestogen, 24H” value was found to be 35.

For `CSc1ccc([C@H]2C[C@@]3(C)[C@@H](CC[C@@]3(O)c3ccc(N(C)C)cc3)[C@@H]3CCC4=CC(=O)CCC4=C32)cc1` [Example 7, 11β-(4-methylthio-phenyl)-17α-(4-dimethylamino-phenyl)-Δ^4,9-estraidene-17β-ol-3-one], in assay [1], the “relative affinity … Glucocorticoid, 2H” value is given as 71 and the “relative affinity … Glucocorticoid, 24H” value was 57. Besides, in assay [2], the “relative affinity … Progestogen, 2H” value was 32 and the “relative affinity … Progestogen, 24H” value came to 150.

With `Cc1ccc([C@]2(O)CC[C@H]3[C@@H]4CCC5=CC(=O)CCC5=C4[C@@H](c4ccc(N(C)C)cc4)C[C@@]32C)cc1` [Example 9, 11β-(4-dimethylamino-phenyl)-17α-(4-methyl-phenyl)-Δ^4,9-estradiene-17β-ol-3-one], in assay [1], the “relative affinity … Glucocorticoid, 2H” value came out at 39 and the “relative affinity … Glucocorticoid, 24H” value is 40. Also, in assay [2], the “relative affinity … Progestogen, 2H” value stood at 22 and the “relative affinity … Progestogen, 24H” value was found to be 110.

Regarding `CN(C)c1ccc([C@H]2C[C@@]3(C)[C@@H](CC[C@@]3(O)c3ccccc3O)[C@@H]3CCC4=CC(=O)CCC4=C32)cc1` [Example 10, 11β-(4-dimethylamino-phenyl)-17α-(2-hydroxy-phenyl)-Δ^4,9-estradiene-17β-ol-3-one], in assay [1], the “relative affinity … Glucocorticoid, 2H” value was found to be 106 and the “relative affinity … Glucocorticoid, 24H” value turned out to be 112. Also, in assay [2], the “relative affinity … Progestogen, 2H” value is reported as 47 and the “relative affinity … Progestogen, 24H” value came out at 189.

As for `COc1ccccc1[C@]1(O)CC[C@H]2[C@@H]3CCC4=CC(=O)CCC4=C3[C@@H](c3ccc(N(C)C)cc3)C[C@@]21C` [Example 11 (Product A), 11β-(4-dimethylamino-phenyl)-17α-(2-methoxy-phenyl)-Δ^4,9-estradiene-17β-ol-3-one], in assay [1], the “relative affinity … Glucocorticoid, 2H” value was 56 and the “relative affinity … Glucocorticoid, 24H” value is 45. For the same compound, in assay [2], the “relative affinity … Progestogen, 2H” value is reported as 38 and the “relative affinity … Progestogen, 24H” value amounted to 230.

Turning to `COc1ccccc1[C@@]1(O)CC[C@H]2[C@@H]3CCC4=CC(=O)CCC4=C3[C@@H](c3ccc(N(C)C)cc3)C[C@@]21C` [Example 11 (Product B), 11β-(4-dimethylamino-phenyl)-17β-(2-methoxy-phenyl)-Δ^4,9-estradiene-17α-ol-3-one], in assay [1], the “relative affinity … Glucocorticoid, 2H” value is on record as 47 and the “relative affinity … Glucocorticoid, 24H” value came to 40. In addition, in assay [2], the “relative affinity … Progestogen, 2H” value was 12 and the “relative affinity … Progestogen, 24H” value was determined as 49.

On to `COc1cccc([C@]2(O)CC[C@H]3[C@@H]4CCC5=CC(=O)CCC5=C4[C@@H](c4ccc(N(C)C)cc4)C[C@@]32C)c1` [Example 12 (Product A), 11β-(4-dimethylamino-phenyl)-17α-(3-methoxy-phenyl)-Δ^4,9-estradiene-17β-ol-3-one], for which, in assay [1], the “relative affinity … Glucocorticoid, 2H” value came to 90 and the “relative affinity … Glucocorticoid, 24H” value is on record as 76. Also, in assay [2], the “relative affinity … Progestogen, 2H” value is listed as 24 and the “relative affinity … Progestogen, 24H” value came to 131.

For `CN(C)c1ccc([C@H]2C[C@@]3(C)[C@@H](CC[C@@]3(O)c3cccc(O)c3)[C@@H]3CCC4=CC(=O)CCC4=C32)cc1` [Example 13 (Product A), 11β-(4-dimethylamino-phenyl)-17α-(3-hydroxy-phenyl)-Δ^4,9-estradiene-17β-ol-3-one], in assay [1], the “relative affinity … Glucocorticoid, 2H” value was determined as 153 and the “relative affinity … Glucocorticoid, 24H” value came out at 145. Moreover, in assay [2], the “relative affinity … Progestogen, 2H” value worked out at 34 and the “relative affinity … Progestogen, 24H” value is on record as 122.

Turning to `CN(C)c1ccc([C@H]2C[C@@]3(C)[C@@H](CC[C@]3(O)c3cccc(O)c3)[C@@H]3CCC4=CC(=O)CCC4=C32)cc1` [Example 13 (Product B), 11β-(4-dimethylaminophenyl)-17β-(3-hydroxy-phenyl)-Δ^4,9-estradiene-17α-ol-3-one], in assay [1], the “relative affinity … Glucocorticoid, 2H” value worked out at 76 and the “relative affinity … Glucocorticoid, 24H” value is given as 63. Also, in assay [2], the “relative affinity … Progestogen, 2H” value was 1,9 and the “relative affinity … Progestogen, 24H” value is recorded as 1,7.
